Experimental data as given in PubChem BioAssay (NCI).
“And” between values parts separate entries of the source, which are not always exact repeats. Equal values may be shown once.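 Dose response: 5 concentrations. Exposure: 48 h. Format: 96-well plates. Endpoint: linear interpolation; highest concentration if not reached. GI50: concentration for 50% inhibition of growth. TGI denotes the concentration required for complete inhibition of growth.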

Assays:
Test in all cases: inhibition of tumour cell growth, NCI panel, 48 h
786-0 renal = tested on: 786-0 renal
HT29 colon = tested on: HT29 colon
KM12 colon = tested on: KM12 colon
LOX IMVI melanoma = tested on: LOX IMVI melanoma
MALME-3M melanoma = tested on: MALME-3M melanoma
SF-539 CNS = tested on: SF-539 CNS
SK-MEL-28 melanoma = tested on: SK-MEL-28 melanoma
SNB-19 CNS = tested on: SNB-19 CNS
NCI-H460 lung = tested on: NCI-H460 lung
NCI/ADR-RES ovarian = tested on: NCI/ADR-RES ovarian

Compound | TGI (786-0 renal) | TGI (HT29 colon) | TGI (KM12 colon) | TGI (LOX IMVI melanoma) | TGI (MALME-3M melanoma) | TGI (SF-539 CNS) | TGI (SK-MEL-28 melanoma) | TGI (SNB-19 CNS) | TGI (NCI-H460 lung) | GI50 (786-0 renal) | GI50 (MALME-3M melanoma) | TGI (NCI/ADR-RES ovarian)
CC[C@H]1[C@@H](C)C=C[C@@H](C)N1S(=O)(=O)c1ccc(C)cc1 | > 100 µM | > 100 µM | > 100 µM | > 100 µM | > 100 µM | > 100 µM | > 100 µM | 35.3 µM | – | – | – | –
Cc1cc2c(=O)cc(-c3ccc(Cl)c(Cl)c3)oc2c(C(=O)O)c1C | > 100 µM | > 100 µM | > 100 µM | > 100 µM | > 100 µM | > 100 µM | > 100 µM | > 100 µM | > 100 µM | – | – | –
COC(=O)CCC(=O)C(CC(=O)OC)C(=O)CCC(=O)NCCc1ccccc1 (configuration not stated) | > 100 µM | > 100 µM | > 100 µM | > 100 µM | > 100 µM | > 100 µM | > 100 µM | > 100 µM | > 100 µM | – | – | –
S=C1NC(c2ccccc2)=NC(Cc2ccccc2)(c2ccccc2)N1c1ccccc1 (configuration not stated) | > 100 µM | > 100 µM | > 100 µM | > 100 µM | > 100 µM | > 100 µM | > 100 µM | > 100 µM | > 100 µM | – | – | –
CCC(CO)COC(=O)/C=C/C(=O)OCC(CC)CO (configuration not stated) | > 100 µM | > 100 µM | > 100 µM | > 100 µM | > 100 µM | > 100 µM | > 100 µM | > 100 µM | > 100 µM | – | – | –
Cc1cc2c(=O)cc(-c3ccc(O)cc3)oc2c(C(=O)O)c1C | > 100 µM | > 100 µM | > 100 µM | > 100 µM | > 100 µM | > 100 µM | > 100 µM | > 100 µM | > 100 µM | – | – | –
CN1C[C@@H]2CC(=O)CC[C@@H]2C[C@H]1C#N | > 100 µM | > 100 µM | > 100 µM | > 100 µM | > 100 µM | – | – | > 100 µM | > 100 µM | – | – | –
Cc1ccc(S(=O)OC2c3ccccc3Cc3ccccc32)cc1 (configuration not stated) | 48.1 µM | > 100 µM | 39.2 µM | 28.8 µM | 26.7 µM | 40.2 µM | 33.8 µM | 59 µM | 46.2 µM | – | – | –
Cc1cc2c(=O)cc(-c3ccc(Cl)cc3Cl)oc2c(C(=O)O)c1C | > 100 µM | > 100 µM | > 100 µM | > 100 µM | > 100 µM | > 100 µM | > 100 µM | > 100 µM | > 100 µM | – | – | –
Cc1ccc(C)c(N2C(=O)C(=O)C(c3nc4ccccc4s3)C(=O)C2=O)c1 | > 100 µM | > 100 µM | > 100 µM | > 100 µM | > 100 µM | > 100 µM | > 100 µM | > 100 µM | > 100 µM | – | – | –
COC(=O)c1oc([N+](=O)[O-])c(-c2ccccc2)c1-c1ccccc1 | > 100 µM | > 100 µM | > 100 µM | > 100 µM | > 100 µM | > 100 µM | > 100 µM | > 100 µM | > 100 µM | – | – | –
N#CC1(C#N)C2C=CC(C3CC=CC32)C1(C#N)C#N (configuration not stated) | 3.36 µM and 7.76 µM | 21.9 µM | – | 18.6 µM | 6.16 µM and 13.1 µM | 17.2 µM | 21.6 µM | > 50 µM | > 50 µM | 2.19 µM | 6.13 µM | 33.4 µM
